Where two headings read alike, the source gives them in different places.
Legend:
[1] = test system: M2-10B4 marrow stromal cells; assay: Alkaline phosphatase (ALP) activity assay; details: for fold induction at 2.5 µM / fold induction at 5 µM / fold induction at 1.25 µM: M210B4, 72 h; for Alkaline phosphatase activity versus control vehicle (significance): 1.25 μM, 3 days, p>0.05
Experimental: The protocol is a modification of alkaline phosphatase assay kit from Sigma. Cells are cultured in 24-well tissue culture plates. After treatments with test agents, cells are rinsed twice with PBS and scraped into 200 ml of lysis buffer (0.2% NP-40 in 1 mM MgCl2) and sonicated for 10 seconds. Next, 1 ml of reaction mixture is added to each well. Reaction mixture is 221 alkaline buffer (Sigma): stock substrate solution (1:1). Stock substrate solution is prepared by dissolving 40 mg of Sigma 104 phosphatase substrate in 10 ml of ddH2O. After addition of reaction mixture to lysed cells, incubation is performed for 30 minutes at 37 C. […] The reaction is stopped by the addition of 12 ml of 1N NaOH to each well, and absorbance is determined at 405 nm. Alkaline phosphatase activity is calculated using p-nitrophenol as a standard, according to Sigma kit's instructions. Results are normalized to total protein in each well determined using the Bio-Rad protein assay solution (Bio-Rad Laboratories).
M2-10B4 marrow stromal cells were treated with oxysterols at various doses for 3 days after which they were collected and analyzed by calorimetric assay for alkaline phosphatase activity (a marker of osteoblastic differentiation) (Table 1); the alkaline phosphatase assay described above was used.
M2-10B4 marrow stromal cells were treated with oxysterols at various doses for 3 days after which they were collected and analyzed by colorimetric assay for alkaline phosphatase activity (a marker of osteoblastic differentiation) (Table 2); the alkaline phosphatase assay described above was used.
M2-10B4 bone marrow stromal cells were treated in culture with control vehicle (C) or various oxysterol (Oxy) molecules as indicated at either 1.25 (1) or 2.5 (2) μM concentrations. After 3 days of treatment, alkaline phosphatase activity as a measure of early osteogenic differentiation of cells was measured in whole cell lysates (See FIG. 9 and Table 3); the alkaline phosphatase assay described above was used.

[2] = test system: marrow stromal cells; assay: Osteoinductive properties (osteoblast differentiation markers: ALP activity, osteocalcin mRNA, mineralization); type: cell-based; details: induction of osteoblast differentiation markers
Source text: Oxysterols discussed in this application include those designated as Oxy22, Oxy26, Oxy27, Oxy28, Oxy39, Oxy40, Oxy41, Oxy42, Oxy48, Oxy49, Oxy20, Oxy34, Oxy36, Oxy38, Oxy50, Oxy51, Oxy52, and Oxy53. At least the following oxysterols have been identified as osteoinductive: Oxy22, Oxy26, Oxy27, Oxy28, Oxy39, Oxy40, Oxy41, Oxy42, Oxy48, Oxy49, Oxy50, Oxy51, Oxy52, and Oxy53. The osteoinductive properties of these oxysterols is shown by their ability to induce the expression of various osteoblast differentiation markers, including alkaline phosphatase activity, osteocalcin mRNA expression, and mineralization. These oxysterols are activators of the hedgehog signaling pathway.

[3] = test system: Patched (Ptch) mRNA expression; assay: Q-RT-PCR for Patched (Ptch) mRNA expression; type: cell-based; details: M2 cells pre-treated 2 h with inhibitor, then 5 μM SS for 48 h
Experimental: Total RNA was extracted with the RNA isolation kit from Stratagene (La Jolla, Calif.) according to the manufacturer's instructions. RNA was DNase-treated using the DNA-free kit from Ambion, Inc. (Austin, Tex.). 3 μg of RNA was reverse-transcribed using reverse transcriptase from Stratagene (La Jolla, Calif.) to make single stranded cDNA. The cDNAs were mixed with Qi SYBR Green Supermix from Bio-Rad Laboratories (Hercules, Calif.) for quantitative RT-PCR using a Bio-Rad I-cycler IQ quantitative thermocycler. All PCR samples were prepared in triplicate or quadruplicate. Each sample was added to duplicate wells of a 96-well plate. After 40 cycles of PCR, melt curves were analyzed in order to ensure primer specificity, and the identity of all PCR products were verified by sequencing and comparing with the complete mRNA sequence obtained from PubMed's GenBank. Fold changes in gene expression were calculated using the ΔΔCt method (14). All primers were designed using the Beacon Designer software from Bio-Rad Laboratories (Hercules, Calif.). […]
M2 cells were pre-treated for 2 h with Dkk-1 or vehicle. […] RNA was isolated and analyzed for Nkd2 (C), Wif-1 (D), and Ptch (E) expression (See FIGS. 5C-5E).

[4] = test system: Naked Cuticle 2 (Nkd2) mRNA expression; type: cell-based; details: M2 cells pre-treated 2 h with inhibitor, then 5 μM SS for 48 h
Experimental: (§1) Total RNA was extracted with the RNA isolation kit from Stratagene (La Jolla, Calif.) according to the manufacturer's instructions. RNA was DNase-treated using the DNA-free kit from Ambion, Inc. (Austin, Tex.). 3 μg of RNA was reverse-transcribed using reverse transcriptase from Stratagene (La Jolla, Calif.) to make single stranded cDNA. The cDNAs were mixed with Qi SYBR Green Supermix from Bio-Rad Laboratories (Hercules, Calif.) for quantitative RT-PCR using a Bio-Rad I-cycler IQ quantitative thermocycler. All PCR samples were prepared in triplicate or quadruplicate. Each sample was added to duplicate wells of a 96-well plate. After 40 cycles of PCR, melt curves were analyzed in order to ensure primer specificity, and the identity of all PCR products were verified by sequencing and comparing with the complete mRNA sequence obtained from PubMed's GenBank. Fold changes in gene expression were calculated using the ΔΔCt method (14). All primers were designed using the Beacon Designer software from Bio-Rad Laboratories (Hercules, Calif.). Primers used are as follows: OCN (5′-[…]-3′ (SEQ ID NO: 1) and 5′-[…]-3′ (SEQ ID NO: 2)), Axin2(5′[…]-3′ (SEQ ID NO: 3) and 5′-[…]-3′ (SEQ ID NO: 4)), Cyclin D1(5′-[…]-3′ (SEQ ID NO: 5) and 5′-[…]-3′ (SEQ ID NO: 6)), NKD2 (5′-[…]-3′ (SEQ ID NO: 7) and 5′[…]-3′ (SEQ ID NO: 8)), WIF-1 (5′-[…]-3′ (SEQ ID NO: 9) and 5′-[…]-3′ (SEQ ID NO: 10)), and GAPDH (5′-[…]-3′ (SEQ ID NO: 11) and 5′-[…]-3′ (SEQ ID NO: 12)).
(§2) M2 cells were treated with 5 μM SS, 200 ng/ml Shh, or control vehicle for 48 h. RNA was isolated and analyzed by Q-RT-PCR for Nkd2 (E) and WIF-1 (F) expression (See FIGS. 4E and 4F).
(§3) M2 cells were pre-treated for 2 h with vehicle or cyclopamine (Cyc) at the concentrations indicated. Next, cells were treated with 5 μM SS or control vehicle for 48 h. RNA was isolated and analyzed for Nkd2 (A) and WIF-1 (B) expression by Q-RT-PCR (See FIGS. 5A and 5B).
(§4) M2 cells were pre-treated for 2 h with Dkk-1 or vehicle. Next, cells were treated with 5 μM SS or control vehicle for 48 h. RNA was isolated and analyzed for Nkd2 (C), Wif-1 (D), and Ptch (E) expression (See FIGS. 5C-5E).
(§5) M2 cells were pre-treated for 2 h with 5 μM LY, 2.5 μM Wm, or vehicle followed by treatment with 5 μM SS or control vehicle for 48 h. RNA was isolated and analyzed for Nkd2 (FIG. 7E) and Wif-1 (FIG. 7F) expression.

[5] = test system: Wnt Inhibitory factor-1 (Wif-1) mRNA expression; type: cell-based; details: M2 cells pre-treated 2 h with inhibitor, then 5 μM SS for 48 h
Experimental: as §1, §2, §3, §4, §5

[6] = read-out: Fold Induction in alkaline phosphatase activity compared to control untreated cells
[7] = read-out: Fold Induction in alkaline phosphatase activity over control untreated cells

SMILES	fold induction at 2.5 µM [1, 6]	fold induction at 5 µM [1, 6]	Osteoinductive property [2]	further results
C[C@]12CCC3C(CC=C4C[C@@H](O)CC[C@@]43C)C1CCC2[C@@](C)(O)CCCc1ccccc1 (stereo partly shown) [Oxy22]	4	9	osteoinductive	–
C[C@]12CC[C@H]3[C@@H](CC=C4C[C@@H](O)CC[C@@]43C)[C@@H]1CC[C@@H]2[C@@](C)(O)CCc1ccccc1 [Oxy27, (3S,8S,9S,10R,13S,14S,17S)-17-((S)-2-Hydroxy-4-phenylbutan-2-yl)-10,13-dimethyl-2,3,4,7,8,9,10,11,12,13,14,15,16,17-tetradecahydro-1H-cyclopenta[a]phenanthren-3-ol]	17	42	osteoinductive	–
C[C@]12CC[C@H](O)C[C@@H]1[C@@H](O)C[C@@H]1[C@@H]2CC[C@@]2(C)[C@H]1CC[C@@H]2[C@@](C)(O)CCCc1ccccc1 [Oxy53, (3S,5S,6S,8R,9S,10R,13S,14S,17S)-17-((S)-2-hydroxy-5-phenylpentan-2-yl)-10,13-dimethylhexadecahydro-1H-cyclopenta[a]phenanthrene-3,6-diol]	–	–	osteoinductive	Alkaline phosphatase activity versus control vehicle (significance) [1]: not significant; fold induction at 1.25 µM [1, 7]: 2; fold induction at 2.5 µM [1, 7]: 11
C=C(C)CCC[C@](C)(O)[C@H]1CC[C@H]2[C@@H]3C[C@H](OC(C)=O)[C@H]4C[C@@H](O)CC[C@]4(C)[C@H]3CC[C@@]21C [Oxy41, (3S,5S,6S,8R,9S,10R,13S,14S,17S)-3-Hydroxy-17-((S)-2-hydroxy-6-methylhept-6-en-2-yl)-10,13-dimethylhexadecahydro-1H-cyclopenta[a]phenanthren-6-yl acetate]	46	175	osteoinductive	–
CC(CO)CCC[C@](C)(O)[C@H]1CC[C@H]2[C@@H]3CC=C4C[C@@H](O)CC[C@]4(C)[C@H]3CC[C@@]21C (stereo partly shown) [Oxy40]	28	105	osteoinductive	–
CC1=C2C[C@H]3[C@@H](CC=C4C[C@@H](O)CC[C@@]43C)[C@@H]2CC[C@]12O[C@@H]1C[C@H](C)CN[C@H]1[C@H]2C [cyclopamine, reference compound]	–	–	–	Inhibition of oxysterol-induced Patched (Ptch) mRNA expression [3]: completely abolished; Inhibition of oxysterol-induced Nkd2 expression [4]: did not inhibit; Inhibition of oxysterol-induced Wif-1 expression [5]: completely blocked
C[C@]12CC[C@H]3[C@@H](CC=C4C[C@@H](O)CC[C@@]43C)[C@@H]1CC[C@@H]2[C@@](C)(O)CCc1ccccc1F [Oxy39, (3S,8S,9S,10R,13S,14S,17S)-17-((S)-4-(2-Fluorophenyl)-2-hydroxybutan-2-yl)-10,13-dimethyl-2,3,4,7,8,9,10,11,12,13,14,15,16,17-tetradecahydro-1H-cyclopenta[a]phen-anthren-3-ol]	52	148	osteoinductive	–
CC(CO)CCC[C@](C)(O)[C@H]1CC[C@H]2[C@@H]3C[C@H](O)[C@H]4C[C@@H](O)CC[C@]4(C)[C@H]3CC[C@@]21C (stereo partly drawn) [Oxy48, (3S,5S,6S,8R,9S,10R,13S,14S,17S)-17-((2S)-2,7-Dihydroxy-6-methylheptan-2-yl)-10,13-dimethylliexadecahydro-1H-cyclopenta[a]phenanthrene-3,6-diol]	11	43	osteoinductive	–
C[C@]12CC[C@H]3[C@@H](CC=C4C[C@@H](O)CC[C@@]43C)[C@@H]1CC[C@@H]2[C@@](C)(O)CCCc1cccs1 [Oxy42, (3S,8S,9S,10R,13S,14S,17S)-17-((S)-2-Hydroxy-5-(thiophen-2-yl)pentan-2-yl)-10,13-dimethyl-2,3,4,7,8,9,10,11,12,13,14,15,16,17-tetradecahydro-1H-cyclopenta[a]phen-anthren-3-ol]	166	290	osteoinductive	–
CC(=O)O[C@H]1CC2C3CCC([C@@](C)(O)CCCC(C)C)[C@@]3(C)CCC2[C@@]2(C)CC[C@H](O)C[C@H]12 (stereo partly shown) [Oxy28]	59	75	osteoinductive	–
C[C@]12CC[C@H](O)C[C@@H]1[C@@H](O)C[C@@H]1[C@@H]2CC[C@@]2(C)[C@H]1CC[C@@H]2[C@@](C)(O)CCCc1cccs1 [Oxy50, (3S,5S,6S,8R,9S,10R,13S,14S,17S)-17-((S)-2-hydroxy-5-(thiophen-2-yl)pentan-2-yl)-10,13-dimethylhexadecahydro-1H-cyclopenta[a]phenanthrene-3,6-diol]	–	–	osteoinductive	fold induction at 1.25 µM [1, 7]: 25; fold induction at 2.5 µM [1, 7]: 65
CC(C)C/C=C/[C@](C)(O)C1CC[C@H]2[C@@H]3CC=C4C[C@@H](O)CC[C@]4(C)[C@H]3CC[C@]12C (stereo partly drawn) [Oxy20, (3S,8S,9S,10R,13S,14S)-17-((S,E)-2-hydroxy-6-methylhept-3-en-2-yl)-10,13-dimethyl-2,3,4,7,8,9,10,11,12,13,14,15,16,17-tetradecahydro-1H-cyclopenta[a]phenanthren-3-ol]	36	68	–	–
C[C@]12CC[C@H]3[C@@H](CC=C4C[C@@H](O)CC[C@@]43C)[C@@H]1CC[C@@H]2[C@@](C)(O)CC#Cc1cccs1 [Oxy26, (3S,8S,9S,10R,13S,14S,17S)-17-((S)-2-Hydroxy-5-(thiophen-2-yl)pent-4-yn-2-yl)-10,13-dimethyl-2,3,4,7,8,9,10,11,12,13,14,15,16,17-tetradecahydro-1H-cyclopenta-[a]phenanthren-3-ol]	27	76	osteoinductive	–
C[C@]12CC[C@H](O)C[C@@H]1[C@@H](O)C[C@@H]1[C@@H]2CC[C@@]2(C)[C@H]1CC[C@@H]2[C@@](C)(O)CC#Cc1cccs1 [Oxy51, (3S,5S,6S,8R,9S,10R,13S,14S,17S)-17-((S)-2-hydroxy-5-(thiophen-2-yl)pent-4-yn-2-yl)-10,13-dimethylhexadecahydro-1H-cyclopenta[a]phenanthrene-3,6-diol]	–	–	osteoinductive	Alkaline phosphatase activity versus control vehicle (significance) [1]: not significant; fold induction at 1.25 µM [1, 7]: 3; fold induction at 2.5 µM [1, 7]: 20
C[C@]12CC[C@H](O)C[C@@H]1[C@@H](O)C[C@@H]1[C@@H]2CC[C@@]2(C)[C@H]1CC[C@@H]2[C@@](C)(O)CCc1ccccc1 [Oxy52, (3S,5S,6S,8R,9S,10R,13S,14S,17S)-17-((S)-2-hydroxy-4-phenylbutan-2-yl)-10,13-dimethylhexadecahydro-1H-cyclopenta[a]phenanthrene-3,6-diol]	–	–	osteoinductive	fold induction at 1.25 µM [1, 7]: 5; fold induction at 2.5 µM [1, 7]: 22
